{"source": "ChEMBL document CHEMBL3596129", "about": "“Osthol and curcumin as inhibitors of human Pgp and multidrug efflux pumps of Staphylococcus aureus: reversing the resistance against frontline antibacterial drugs” (Medchemcomm, 2014)", "key": {"[1]": {"target": "T1, Fluoroquinolone resistance protein (Staphylococcus aureus) (UniProt A0A0C5K5S3)", "T1 sequence (whole entry)": "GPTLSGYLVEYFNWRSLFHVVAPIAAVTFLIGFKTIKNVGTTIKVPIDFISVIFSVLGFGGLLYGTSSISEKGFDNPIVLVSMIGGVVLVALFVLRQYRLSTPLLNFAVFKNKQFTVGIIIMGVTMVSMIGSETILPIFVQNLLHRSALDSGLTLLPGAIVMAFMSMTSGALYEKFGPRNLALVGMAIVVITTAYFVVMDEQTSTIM", "experiment": "Inhibition of MdeA overexpressed in Staphylococcus aureus Mupr-1 assessed as mupirocin MIC at 3.12 uM after 24 hrs by broth checkerboard method (reference value: 256 ug/ml)"}, "[2]": {"target": "T2, Quinolone resistance protein NorA (Staphylococcus aureus) (UniProt P0A0J7)", "T2 sequence (whole entry)": "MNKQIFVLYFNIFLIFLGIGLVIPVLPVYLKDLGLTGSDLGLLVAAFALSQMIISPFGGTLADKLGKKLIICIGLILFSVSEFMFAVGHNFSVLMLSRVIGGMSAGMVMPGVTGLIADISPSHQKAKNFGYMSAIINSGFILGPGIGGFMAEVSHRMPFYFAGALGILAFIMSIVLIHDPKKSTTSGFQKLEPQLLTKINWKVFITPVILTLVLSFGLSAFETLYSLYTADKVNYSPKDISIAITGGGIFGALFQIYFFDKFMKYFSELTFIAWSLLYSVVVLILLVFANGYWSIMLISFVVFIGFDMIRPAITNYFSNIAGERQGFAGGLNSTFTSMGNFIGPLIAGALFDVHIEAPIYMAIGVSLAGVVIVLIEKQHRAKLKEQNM", "experiment": "Inhibition of NorA overexpressed in Staphylococcus aureus SA1199B assessed as decrease in ciprofloxacin MIC at 3.12 uM after 24 hrs by broth checkerboard method relative to control"}, "Staphylococcus aureus [3]": {"system": "Staphylococcus aureus", "experiment": "Inhibition of MsrA overexpressed in Staphylococcus aureus K2191 assessed as decrease in erythromycin MIC at 3.12 uM after 24 hrs by broth checkerboard method relative to control"}, "Staphylococcus aureus [4]": {"system": "Staphylococcus aureus", "experiment": "Inhibition of TetK overexpressed in Staphylococcus aureus K2192 assessed as decrease in tetracycline MIC at 3.12 uM after 24 hrs by broth checkerboard method relative to control"}, "[5]": {"target": "T3, ATP-dependent translocase ABCB1 (Homo sapiens, UniProt P08183)", "experiment": "Inhibition of P-gp in human LS180 cells at 50 uM after 90 mins by rhodamine123 cell exclusion method", "assay_type": "cell-based", "settings": "ls180, 1.5 h; call rule not given here"}, "Staphylococcus aureus [6]": {"system": "Staphylococcus aureus", "experiment": "Inhibition of TetK overexpressed in Staphylococcus aureus K2192 assessed as tetracycline MIC at 3.12 uM after 24 hrs by broth checkerboard method (reference value: 32 ug/ml)"}, "[7]": {"target": "T2, Quinolone resistance protein NorA (Staphylococcus aureus)", "experiment": "Inhibition of NorA overexpressed in Staphylococcus aureus SA1199B assessed as ciprofloxacin MIC at 3.12 uM after 24 hrs by broth checkerboard method (reference value: 8 ug/ml)"}, "Staphylococcus aureus [8]": {"system": "Staphylococcus aureus", "experiment": "Inhibition of MsrA overexpressed in Staphylococcus aureus K2191 assessed as erythromycin MIC at 3.12 uM after 24 hrs by broth checkerboard method (reference value: 64 ug/ml)"}, "[9]": {"target": "T1, Fluoroquinolone resistance protein (Staphylococcus aureus)", "experiment": "Inhibition of MdeA overexpressed in Staphylococcus aureus Mupr-1 assessed as decrease in mupirocin MIC at 3.12 uM after 24 hrs by broth checkerboard method relative to control"}, "Staphylococcus aureus [10]": {"system": "Staphylococcus aureus", "experiment": "Inhibition of MsrA overexpressed in Staphylococcus aureus K2191 assessed as decrease in erythromycin MIC at 25 uM after 24 hrs by broth checkerboard method relative to control"}, "P-gp [11]": {"system": "P-gp", "experiment": "Substrate activity at P-gp in human Caco2 cells assessed as efflux ratio of apparent permeability across basolateral to apical side over apical to basolateral side at 10 uM after 90 mins by HPLC with mass spectrometric method", "assay_type": "ADME, cell-based", "settings": "Caco-2"}, "Staphylococcus aureus [12]": {"system": "Staphylococcus aureus", "experiment": "Inhibition of TetK overexpressed in Staphylococcus aureus K2192 assessed as decrease in tetracycline MIC at 25 uM after 24 hrs by broth checkerboard method relative to control"}, "Staphylococcus aureus [13]": {"system": "Staphylococcus aureus", "experiment": "Inhibition of TetK overexpressed in Staphylococcus aureus K2192 assessed as tetracycline MIC at 25 uM after 24 hrs by broth checkerboard method (reference value: 32 ug/ml)"}, "CYP2C9": {"target": "CYP2C9 (Homo sapiens, UniProt P11712)", "sequence (P11712 whole entry)": "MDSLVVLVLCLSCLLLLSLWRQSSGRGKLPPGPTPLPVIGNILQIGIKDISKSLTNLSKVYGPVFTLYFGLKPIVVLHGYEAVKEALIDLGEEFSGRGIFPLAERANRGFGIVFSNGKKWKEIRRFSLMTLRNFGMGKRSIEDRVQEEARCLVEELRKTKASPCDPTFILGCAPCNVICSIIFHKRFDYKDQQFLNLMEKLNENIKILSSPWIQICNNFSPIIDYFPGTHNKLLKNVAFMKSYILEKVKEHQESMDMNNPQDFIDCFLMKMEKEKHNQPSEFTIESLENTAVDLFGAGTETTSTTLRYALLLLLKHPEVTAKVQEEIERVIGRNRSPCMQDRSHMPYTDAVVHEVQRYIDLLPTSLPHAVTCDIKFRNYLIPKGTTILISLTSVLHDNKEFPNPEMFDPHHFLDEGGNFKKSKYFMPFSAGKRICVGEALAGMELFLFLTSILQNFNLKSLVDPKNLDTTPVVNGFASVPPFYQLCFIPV", "experiment": "Inhibition of human CYP2C9 at 10 uM preincubated for 10 mins with cofactor followed by mixture of enzyme-substrate addition by fluorescence assay relative to control", "assay_type": "ADME"}, "Staphylococcus aureus [14]": {"system": "Staphylococcus aureus", "experiment": "Inhibition of MsrA overexpressed in Staphylococcus aureus K2191 assessed as erythromycin MIC at 25 uM after 24 hrs by broth checkerboard method (reference value: 64 ug/ml)"}, "P-gp [15]": {"system": "P-gp", "experiment": "Substrate activity at P-gp in human Caco2 cells assessed as apparent permeability across basolateral to apical side at 10 uM after 90 mins by HPLC with mass spectrometric method", "assay_type": "ADME, cell-based", "settings": "Caco-2"}, "CYP3A4": {"target": "CYP3A4 (Homo sapiens, UniProt P08684)", "sequence (P08684 whole entry)": "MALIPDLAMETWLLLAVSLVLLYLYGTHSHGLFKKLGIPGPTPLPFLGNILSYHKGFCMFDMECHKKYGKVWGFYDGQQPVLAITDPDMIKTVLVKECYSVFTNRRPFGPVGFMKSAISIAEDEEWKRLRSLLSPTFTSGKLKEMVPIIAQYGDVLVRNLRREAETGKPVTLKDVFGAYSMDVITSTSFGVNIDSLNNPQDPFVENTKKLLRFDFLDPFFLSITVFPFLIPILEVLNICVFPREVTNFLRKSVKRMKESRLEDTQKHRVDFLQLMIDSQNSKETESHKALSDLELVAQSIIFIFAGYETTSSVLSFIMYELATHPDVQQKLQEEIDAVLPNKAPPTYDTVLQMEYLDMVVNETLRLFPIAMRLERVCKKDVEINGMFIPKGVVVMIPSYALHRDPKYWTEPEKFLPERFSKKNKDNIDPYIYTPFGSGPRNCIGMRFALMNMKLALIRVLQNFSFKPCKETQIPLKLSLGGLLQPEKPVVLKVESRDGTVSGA", "experiment": "Inhibition of human CYP3A4 at 10 uM preincubated for 10 mins with cofactor followed by mixture of enzyme-substrate addition by fluorescence assay relative to control", "assay_type": "ADME"}, "[16]": {"target": "T2, Quinolone resistance protein NorA (Staphylococcus aureus)", "experiment": "Inhibition of NorA overexpressed in Staphylococcus aureus SA1199B assessed as decrease in ciprofloxacin MIC at 25 uM after 24 hrs by broth checkerboard method relative to control"}, "[17]": {"target": "T3, ATP-dependent translocase ABCB1", "experiment": "Inhibition of P-gp in human LS180 cells after 90 mins by rhodamine123 cell exclusion method", "assay_type": "cell-based"}, "P-gp [18]": {"system": "P-gp", "experiment": "Substrate activity at P-gp in human Caco2 cells assessed as apparent permeability across apical to basolateral side at 10 uM after 90 mins by HPLC with mass spectrometric method", "assay_type": "ADME, cell-based", "settings": "Caco-2"}, "[19]": {"target": "T1, Fluoroquinolone resistance protein (Staphylococcus aureus)", "experiment": "Inhibition of MdeA overexpressed in Staphylococcus aureus Mupr-1 assessed as decrease in mupirocin MIC at 25 uM after 24 hrs by broth checkerboard method relative to control"}, "CYP2C19": {"target": "CYP2C19 (Homo sapiens, UniProt P33261)", "sequence (P33261 whole entry)": "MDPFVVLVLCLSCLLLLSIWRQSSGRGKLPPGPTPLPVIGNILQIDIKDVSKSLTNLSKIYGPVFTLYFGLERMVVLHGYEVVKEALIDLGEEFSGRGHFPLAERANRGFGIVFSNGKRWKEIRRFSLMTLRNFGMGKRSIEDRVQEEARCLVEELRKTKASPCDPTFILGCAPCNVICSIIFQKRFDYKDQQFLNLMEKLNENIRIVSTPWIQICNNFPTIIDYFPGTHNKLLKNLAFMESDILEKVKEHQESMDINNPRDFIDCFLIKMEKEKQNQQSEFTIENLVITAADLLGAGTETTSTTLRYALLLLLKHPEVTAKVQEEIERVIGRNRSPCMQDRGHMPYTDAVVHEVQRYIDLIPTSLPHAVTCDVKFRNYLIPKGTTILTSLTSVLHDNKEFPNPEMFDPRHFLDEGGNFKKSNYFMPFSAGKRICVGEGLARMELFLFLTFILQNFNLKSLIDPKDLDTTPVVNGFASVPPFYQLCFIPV", "experiment": "Inhibition of human CYP2C19 at 10 uM preincubated for 10 mins with cofactor followed by mixture of enzyme-substrate addition by fluorescence assay relative to control", "assay_type": "ADME"}, "CYP2D6": {"target": "CYP2D6 (Homo sapiens, UniProt P10635)", "sequence (P10635 whole entry)": "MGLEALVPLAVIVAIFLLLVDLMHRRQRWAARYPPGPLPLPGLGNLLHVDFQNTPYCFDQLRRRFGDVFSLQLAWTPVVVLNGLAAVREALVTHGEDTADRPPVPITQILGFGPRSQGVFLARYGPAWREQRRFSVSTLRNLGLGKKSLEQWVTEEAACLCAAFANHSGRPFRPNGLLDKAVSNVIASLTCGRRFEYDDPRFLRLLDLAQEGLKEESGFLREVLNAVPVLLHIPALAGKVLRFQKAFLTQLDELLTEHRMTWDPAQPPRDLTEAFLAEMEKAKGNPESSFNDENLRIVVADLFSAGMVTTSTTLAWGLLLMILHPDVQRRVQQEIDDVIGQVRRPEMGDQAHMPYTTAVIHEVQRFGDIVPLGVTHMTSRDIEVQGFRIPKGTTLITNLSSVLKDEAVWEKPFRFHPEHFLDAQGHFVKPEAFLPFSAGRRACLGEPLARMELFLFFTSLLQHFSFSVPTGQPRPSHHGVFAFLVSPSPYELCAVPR", "experiment": "Inhibition of human CYP2D6 at 10 uM preincubated for 10 mins with cofactor followed by mixture of enzyme-substrate addition by fluorescence assay relative to control", "assay_type": "ADME"}, "[20]": {"target": "T2, Quinolone resistance protein NorA (Staphylococcus aureus)", "experiment": "Inhibition of NorA overexpressed in Staphylococcus aureus SA1199B assessed as ciprofloxacin MIC at 25 uM after 24 hrs by broth checkerboard method (reference value: 8 ug/ml)"}, "[21]": {"target": "T1, Fluoroquinolone resistance protein (Staphylococcus aureus)", "experiment": "Inhibition of MdeA overexpressed in Staphylococcus aureus Mupr-1 assessed as mupirocin MIC at 25 uM after 24 hrs by broth checkerboard method (reference value: 256 ug/ml)"}}}
{"smiles": "CC(=O)c1c(O)c(C)c(O)c(Cc2c3c(c(O)c4c2OC(c2ccccc2)CC4=O)C=CC(C)(C)O3)c1O", "note": "(stereo unspecified)", "values": [{"measurement": "MIC", "setting": "[1]", "result": 256, "unit": "µg/mL"}, {"measurement": "fold change (FC)", "setting": "[2]", "result": 4}, {"measurement": "fold change (FC)", "setting": "Staphylococcus aureus [3]", "result": 0}, {"measurement": "fold change (FC)", "setting": "Staphylococcus aureus [4]", "result": 0}, {"measurement": "inhibition (INH)", "setting": "[5]", "result": "Not Active"}, {"measurement": "MIC", "setting": "Staphylococcus aureus [6]", "result": 32, "unit": "µg/mL"}, {"measurement": "MIC", "setting": "[7]", "result": 2, "unit": "µg/mL"}, {"measurement": "MIC", "setting": "Staphylococcus aureus [8]", "result": 64, "unit": "µg/mL"}, {"measurement": "fold change (FC)", "setting": "[9]", "result": 0}]}
{"smiles": "COc1ccc2ccc(=O)oc2c1CC=C(C)C", "note": "[OSTHOLE]", "values": [{"measurement": "fold change (FC)", "setting": "Staphylococcus aureus [10]", "result": 0}, {"measurement": "efflux ratio at 1.5 h, 10 µM", "setting": "P-gp [11]", "result": 1.3}, {"measurement": "fold change (FC)", "setting": "Staphylococcus aureus [12]", "result": 2}, {"measurement": "MIC", "setting": "Staphylococcus aureus [13]", "result": 16, "unit": "µg/mL"}, {"measurement": "inhibition at 10 µM", "setting": "CYP2C9", "result": 39.8, "unit": "%"}, {"measurement": "MIC", "setting": "Staphylococcus aureus [14]", "result": 64, "unit": "µg/mL"}, {"measurement": "Papp B→A at 1.5 h, 10 µM", "setting": "P-gp [15]", "result": 35, "unit": "×10⁻⁶ cm/s"}, {"measurement": "inhibition at 10 µM", "setting": "CYP3A4", "result": 27.3, "unit": "%"}, {"measurement": "fold change (FC)", "setting": "[16]", "result": 4}, {"measurement": "IC50", "setting": "[17]", "result": 34, "unit": "µM"}, {"measurement": "Papp A→B at 1.5 h, 10 µM", "setting": "P-gp [18]", "result": 26, "unit": "×10⁻⁶ cm/s"}, {"measurement": "inhibition (INH)", "setting": "[5]", "result": "Not Active"}, {"measurement": "fold change (FC)", "setting": "[19]", "result": 0}, {"measurement": "inhibition at 10 µM", "setting": "CYP2C19", "result": 56.5, "unit": "%"}, {"measurement": "inhibition at 10 µM", "setting": "CYP2D6", "result": 60.5, "unit": "%"}, {"measurement": "MIC", "setting": "[20]", "result": 2, "unit": "µg/mL"}, {"measurement": "MIC", "setting": "[21]", "result": 256, "unit": "µg/mL"}]}
